We go through one compound from patent US20030207843A1, “Treatment of drug-resistant human immunodeficiency virus infection” (priority 1999, published 2003).

Some results are limits rather than exact numbers.

The experiment has as its system recombinant HIV-1 with V75L alone or in combination with L214F or M164I. As to the kind of experiment: p24 reduction assay in MT-2 cells, V75L recombinants. It counts as cell-based. The settings on record: Example 6. How it is done: Antiviral Susceptibility Assays. The antiviral activity of each compound was determined by inoculating MT-2 cells with HIV-1LAI at a multiplicity of infection (MOI) of 0.01 TCID50/cell, followed by incubation in the presence of three-fold serial drug dilutions (3 wells per dilution) (see Mellors, et. al., Antimicrob. Agents Chemother. 39:1087-1092). Five or seven days after infection, culture supernatants were harvested, lysed with 0.5% triton-X 100 and assayed for p24 antigen concentration using a commercial ELISA assay (DuPont, NEN Products, Wilmington, Del.). The antiviral activity of the compounds is expressed as the IC50, which is the concentration required to inhibit 50% of p24 antigen production. The fold-resistance of a test virus is calculated by dividing the IC50 of the test virus by the IC50 of the HIV-1LAI control virus.
Generation of Mutant Recombinant HIV-1. HIV-1 containing the desired mutations were generated by oligonucleotide directed mutagenesis (Altered Sites II, Promega) as previously described (Mellors, et. al., Molecular Pharm. 41:446-451). After mutagenesis, mutant RT was subcloned into the pxxHIV-1LAI cloning vector using the silent XmaI and XbaI restriction sites located at the 5′ and 3′ ends of RT. […]

As to `CCCCCCCCCCCCCCCCCCOC[C@H](COP(=O)(O)C(=O)O)OC` [MB-PFA, 1-O-octadecyl-2-O-methyl-sn-glycero-3-PFA], the Fold resistance is less than 3 fold.
